What was measured:
Assay type in all cases: in vivo
Abutilon theophrasti [1] = test: Pre-emergence test; conditions: 0.400 kg/ha, 3 weeks after treatment
Procedure, shortened: (§1)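 Freshly sown seeds in horticultural loam were sprayed with compound dissolved in acetone with 0.4% w/w alkylphenol/ethylene oxide surfactant, diluted with water, at 0.013, 0.025, 0.100 or 0.400 kg a.i./ha in 900 L/ha. Untreated sown soil served as control; pots were rated 2 to 4 weeks after treatment.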

Alopecurus myosuroides [2] = test: Pre-emergence test; conditions: 0.400 kg/ha, 3 weeks after treatment
Procedure, shortened: as §1

Ambrosia artemisifolia [3] = test: Pre-emergence test; conditions: 0.400 kg/ha, 3 weeks after treatment
Procedure, shortened: as §1

Cassia obtusifolia = test: Pre-emergence test; conditions: 0.400 kg/ha, 3 weeks after treatment
Procedure, shortened: as §1

Digitaria sanguinalis = test: Pre-emergence test; conditions: 0.400 kg/ha, 3 weeks after treatment
Procedure, shortened: as §1

Echinochloa crus-galli [4] = test: Pre-emergence test; conditions: 0.400 kg/ha, 3 weeks after treatment
Procedure, shortened: as §1

Galium aparine = test: Pre-emergence test; conditions: 0.400 kg/ha, 3 weeks after treatment
Procedure, shortened: as §1

Glycine max [5] = test: Pre-emergence test; conditions: 0.400 kg/ha, 3 weeks after treatment
Procedure, shortened: as §1

Ipomoea hederacea [6] = test: Pre-emergence test; conditions: 0.400 kg/ha, 3 weeks after treatment
Procedure, shortened: as §1

Lamium purpureum = test: Pre-emergence test; conditions: 0.400 kg/ha, 3 weeks after treatment
Procedure, shortened: as §1

Matricaria inodora [7] = test: Pre-emergence test; conditions: 0.400 kg/ha, 3 weeks after treatment
Procedure, shortened: as §1

Orysa sativa = test: Pre-emergence test; conditions: 0.400 kg/ha, 3 weeks after treatment
Procedure, shortened: as §1

Setaria viridis [8] = test: Pre-emergence test; conditions: 0.400 kg/ha, 3 weeks after treatment
Procedure, shortened: as §1

Stellaria media = test: Pre-emergence test; conditions: 0.400 kg/ha, 3 weeks after treatment
Procedure, shortened: as §1

Triticum aestivum [9] = test: Pre-emergence test; conditions: 0.400 kg/ha, 3 weeks after treatment
Procedure, shortened: as §1

Zea mays [10] = test: Pre-emergence test; conditions: 0.400 kg/ha, 3 weeks after treatment
Procedure, shortened: as §1

Abutilon theophrasti [11] = test: Post-emergence herbicidal activity test; conditions: 0.200 kg/ha, 2-4 weeks after treatment
Procedure, shortened: (§2)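 Injury is scored on a rating scale 2 to 4 weeks after spraying. Seedlings receive test compound formulated from acetone solutions diluted with water, applied at about 0.025 to 0.4 kg per hectare per pot, and are then grown on greenhouse benches.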

Alopecurus myosuroides [12] = test: Post-emergence herbicidal activity test; conditions: 0.200 kg/ha, 2-4 weeks after treatment
Procedure, shortened: as §2

Ambrosia artemisifolia [13] = test: Post-emergence herbicidal activity test; conditions: 0.200 kg/ha, 2-4 weeks after treatment
Procedure, shortened: as §2

Echinochloa crus-galli [14] = test: Post-emergence herbicidal activity test; conditions: 0.200 kg/ha, 2-4 weeks after treatment
Procedure, shortened: as §2

Glycine max [15] = test: Post-emergence herbicidal activity test; conditions: 0.200 kg/ha, 2-4 weeks after treatment
Procedure, shortened: as §2

Ipomoea hederacea [16] = test: Post-emergence herbicidal activity test; conditions: 0.200 kg/ha, 2-4 weeks after treatment
Procedure, shortened: as §2

Matricaria inodora [17] = test: Post-emergence herbicidal activity test; conditions: 0.200 kg/ha, 2-4 weeks after treatment
Procedure, shortened: as §2

Setaria viridis [18] = test: Post-emergence herbicidal activity test; conditions: 0.200 kg/ha, 2-4 weeks after treatment
Procedure, shortened: as §2

Triticum aestivum [19] = test: Post-emergence herbicidal activity test; conditions: 0.200 kg/ha, 2-4 weeks after treatment
Procedure, shortened: as §2

Zea mays [20] = test: Post-emergence herbicidal activity test; conditions: 0.200 kg/ha, 2-4 weeks after treatment
Procedure, shortened: as §2

Cc1cc(C#C[Si](C)(C)C)nc(Oc2cc(C(F)(F)F)nn2C)c1 [Example 14]
Assessment (pre-emergence application) ABUTH (Abutilon theophrasti [1]): 0 (0-No effect) | Assessment (pre-emergence application) ALOMY (Alopecurus myosuroides [2]): 7 (7-Good herbicidal effect) | Assessment (pre-emergence application) MBEL (Ambrosia artemisifolia [3]): 9 (9-Complete kill) | Assessment (pre-emergence application) CASOB (Cassia obtusifolia): 3 (3-Moderate effect) | Assessment (pre-emergence application) DIGSA (Digitaria sanguinalis): 9 (9-Complete kill) | Assessment (pre-emergence application) ECHCG (Echinochloa crus-galli [4]): 5 (5-Definite injury) | Assessment (pre-emergence application) GALAP (Galium aparine): 1 (1-Trace effect) | Assessment (pre-emergence application) GLXMA (Glycine max [5]): 2 (2-Slight effect) | Assessment (pre-emergence application) IPOHE (Ipomoea hederacea [6]): 1 (1-Trace effect) | Assessment (pre-emergence application) LAMPU (Lamium purpureum): 9 (9-Complete kill) | Assessment (pre-emergence application) MATIN (Matricaria inodora [7]): 8 (8-Approaching complete kill) | Assessment (pre-emergence application) ORYSA (Orysa sativa): 0 (0-No effect) | Assessment (pre-emergence application) SETVI (Setaria viridis [8]): 5 (5-Definite injury) | Assessment (pre-emergence application) STEME (Stellaria media): 9 (9-Complete kill) | Assessment (pre-emergence application) TRZWA (Triticum aestivum [9]): 1 (1-Trace effect) | Assessment (pre-emergence application) ZEAMX (Zea mays [10]): 1 (1-Trace effect) | Post-emergence application ABUTH (Abutilon theophrasti [11]): 1 (1-Trace effect) | Post-emergence application ALOMY (Alopecurus myosuroides [12]): 3 (3-Moderate effect) | Post-emergence application AMBEL (Ambrosia artemisifolia [13]): 3 (3-Moderate effect) | Post-emergence application ECHCG (Echinochloa crus-galli [14]): 1 (1-Trace effect) | Post-emergence application GLXMA (Glycine max [15]): 4 (4-Injury) | Post-emergence application IPOHE (Ipomoea hederacea [16]): 8 (8-Approaching complete kill) | Post-emergence application MATIN (Matricaria inodora [17]): 5 (5-Definite injury) | Post-emergence application SETVI (Setaria viridis [18]): 3 (3-Moderate effect) | Post-emergence application TRZWA (Triticum aestivum [19]): 1 (1-Trace effect) | Post-emergence application ZEAMX (Zea mays [20]): 1 (1-Trace effect)
